Experimental data: patent US3948925A, “Novel thiazole derivatives” (priority 1973, dated 1976)
Where two headings read alike, the source gives them in different places.

Key:
Format in all cases: in vivo
Sitophilus granarius = test: Insecticidal activity against Sitophilus granarius, topical application to ventral thorax; conditions: 20°C; for mortality at 0.1 mg: dose 100 (μg); for mortality at 1 mg: dose 1000 (μg)
Procedure: 0.2 μl of an acetone solution of the test product was applied to the ventral thorax of each insect at concentrations of 5000 and 500 ppm with 50 insects for each test. The insects were held at 20°C and the percent of mortality was determined 24 and 48 hours and 6 days after the treatment.

[1] = tested on: Mamestra oleracea caterpillars; test: Insecticidal activity against Mamestra oleracea caterpillars, topical application; conditions: for mortality at 0.001 mg / mortality at 0.01 mg: Mamestra, topical; for mortality at 0.001 mg: 1 μg; for mortality at 0.01 mg: 10 μg
[2] = tested on: Chilo suppressalis caterpillars; test: Insecticidal activity against Chilo suppressalis caterpillars, topical application; conditions: for mortality at 0.001 mg / mortality at 0.01 mg: Chilo suppressalis, topical; for mortality at 0.001 mg: 1 μg; for mortality at 0.01 mg: 10 μg
Procedure: (§1) This test was effected on Mamestra brassicae caterpillars in the last larvae stage with a body of 1.5 to 2.0 cm. 1 μl of an acetone solution of the test compound was applied topically to the dorsal thorax of each caterpillar using 10 caterpillars for each dose studied and the caterpillars were kept at 25°C.
(§2) The procedure of Test A was repeated with Spodoptera expigua and Chilo suppressalis caterpillars with compound A and the results are reported in Table II.

[3] = tested on: Mamestra brassicae caterpillars; test: Insecticidal activity against Mamestra brassicae caterpillars, topical application; conditions: 10 μg per caterpillar; for mortality at 0.01 mg: Mamestra brassicae, topical, read-out: percent of mortality
Procedure: as §1

[4] = tested on: Tetranychus urticae larvae; test: Acaricidal activity, larvicide test on bean leaves; conditions: 216 h, 9 days after treatment
Procedure: (§3) Bean leaves infested with 10 Tetranychus urticae females per leaf and coated with glue about their periphery were used in this test and the females were left to lay eggs for 24 hours and were then removed from the leaves which were egg infested and divided into 2 groups. The first group was sprayed with 0.5 ml of an aqueous solution of compound A for each leaf at concentrations of 50 or 10 mg per liter and the second group was untreated to act as controls. The number of living eggs 9 days after the treatment was determined and the percent of egg mortality was determined and reported in Table IX.
This test was similar to the ovicide test but the readings were effected 9 days after the treatment to allow time for the insects to evolve.

Ceratitis capitata = test: Insecticidal activity against Ceratitis capitata flies, topical application; conditions: for mortality at 100 µg/mL / mortality at 1000 µg/mL: Ceratitis capitata; for mortality at 100 µg/mL: topical; for mortality at 1000 µg/mL: 1000 mg per liter, 1 μl topical
Procedure: This test was effected topically with acetone solutions of 1000 or 100 mg of compound A per liter and 1 μl of the solution was applied to the dorsal thorax of Ceratitis capitata flies aged 25 days (± 0.5) using 50 insects for each concentration. The number of flies still living and dead was determined after 2 and 24 hours to determine the percent of mortality.

Tetranychus urticae = test: Acaricidal activity, adulticide test on infested bean leaves; conditions: read-out: % Mortality (adults); for mortality at 10 µg/mL: 10 mg/liter
Procedure: Bean leaves infested with 25 acarids per leaf and coated with glue about their edge were divided into 2 groups. The first group was sprayed with 2.5 ml of an aqueous solution of the test compound A for each leaf at concentrations of 50, 10 and 1 mg/liter. The second control group was untreated and the number of acarids living 48 hours after the spraying was determined to determine the percent of mortality.

Tetranychus urticae eggs = test: Acaricidal activity, ovicide test on egg-infested bean leaves; conditions: 216 h, 9 days after treatment
Procedure: as §3

Panagrellus silusae = test: Nematocidal activity against Panagrellus silusae in aqueous suspension; conditions: for mortality at 100 µg/mL / mortality at 1000 µg/mL: Panagrellus, 24 hours; for mortality at 100 µg/mL: 0.1 g/l; for mortality at 1000 µg/mL: 1 g/l; for nematocidal activity: in vivo
Procedure: (§4) About 2000 nematodes suspended in 0.5 ml of water were placed in a container of about 50 ml and 10 ml of an aqueous suspension of the test compound at a concentration of 1 or 0.1 g/liter were added thereto using 3 tests for each concentration. After homogenization of the aqueous media for 24 hours, a 1 ml sample was taken and the living and dead nematodes were counted with a Peter sheet.

[5] = tested on: Ditylenchus myceliophagus; test: Nematocidal activity against Ditylenchus myceliophagus in aqueous suspension; conditions: for mortality at 100 µg/mL / mortality at 1000 µg/mL: Ditylenchus myceliophagus, 24 hours; for mortality at 100 µg/mL: 0.1 g/l; for mortality at 1000 µg/mL: 1.0 g/l; for nematocidal activity: in vivo
Procedure: as §4

Drosophila melanogaster = test: Insecticidal activity against Drosophila melanogaster, dried film in crystallizer (contact and vapor); conditions: for Emax at 50 µg/mL / Emax at 500 µg/mL / Emax at 5000 µg/mL: Drosophila melanogaster, read-out: % Efficacy; for Emax at 50 µg/mL: 50 mg/liter; for Emax at 500 µg/mL: 500 mg/liter; for Emax at 5000 µg/mL: 5000 mg/liter
Procedure: 2 ml of an acetone solution of the test product at concentrations of 5000, 500 and 50 ppm were placed in the bottom of a crystallizer and were then allowed to dry for 1 hour under a laboratory atmosphere. Three tests were run for each concentration and 25 to 50 drosophiles were placed in the crystallizer together with a carrot ring which acted as nutrient for the insects. The crystallizers were closed with a Petri dish cover and they were stored at 20°C. The number of living and dead insects was determined after 1,2,4 and 24 hours and the results for compound A are reported in Table IV.

Blatella germanica = test: Insecticidal activity against Blatella germanica, topical application to ventral thorax; conditions: for insecticidal activity: in vivo
Procedure: 1 μl of an acetone solution of the test product was applied to the ventral thorax of the insects with 20 insects per dose and concentrations of 2500, 1250, 625 and 312,5 mg/liter. The number of living and dead insects 24 and 48 hours and 6 days after the treatment was determined and the results were reported in Table VI.

[6] = tested on: Spodoptera exigua caterpillars; test: Insecticidal activity against Spodoptera exigua caterpillars, topical application; conditions: for mortality at 0.001 mg / mortality at 0.01 mg: Spodoptera exigua, topical; for mortality at 0.001 mg: 1 μg; for mortality at 0.01 mg: 10 μg
Procedure: as §1, §2

## CCOC(=O)c1csc(OP(=S)(OCC)OCC)n1 [Compound A, 4-ethoxycarbonyl-2-(diethoxythiophosphoryloxy)-thiazole]
Sitophilus granarius; 144 h, 6 days
  mortality at 0.1 mg: 10%
  mortality at 1 mg: 100%
Sitophilus granarius; 24 hr
  mortality at 0.1 mg: 6%
  mortality at 1 mg: 100%
Sitophilus granarius; 48 hr
  mortality at 0.1 mg: 6%
  mortality at 1 mg: 100%
[1]; 24 hr
  mortality at 0.001 mg: 40%
  mortality at 0.01 mg: 100%
[1]; 48 hr
  mortality at 0.001 mg: 50%
  mortality at 0.01 mg: 100%
[1]; in vivo
  insecticidal activity: good insecticidal activity
[2]; 24 hr
  mortality at 0.001 mg: 100%
  mortality at 0.01 mg: 100%
[2]; 48 hr
  mortality at 0.001 mg: 100%
  mortality at 0.01 mg: 100%
[2]; in vivo
  insecticidal activity: good insecticidal activity
[3]
  insecticidal activity: good insecticidal activity
[3]; 24 h
  mortality at 0.01 mg: 100%
[3]; 48 h
  mortality at 0.01 mg: 100%
[4]; 10 mg/liter
  mortality at 10 µg/mL: 100%
[4]; 50 mg/liter
  mortality at 50 µg/mL: 100%
Ceratitis capitata; 2 h
  mortality at 100 µg/mL: 61.2%
Ceratitis capitata; 24 h
  mortality at 100 µg/mL: 38.8%
Ceratitis capitata; 2 hours
  mortality at 1000 µg/mL: 91.7%
Ceratitis capitata; 24 hours
  mortality at 1000 µg/mL: 97.9%
Ceratitis capitata; in vivo
  insecticidal activity: good insecticidal activity
Tetranychus urticae; 48 hours
  mortality at 10 µg/mL: 100%
Tetranychus urticae; 50 mg/liter, 48 hours
  mortality at 50 µg/mL: 100%
Tetranychus urticae eggs; 10 mg/liter
  mortality at 10 µg/mL: 93.3%
Tetranychus urticae eggs; 50 mg/liter
  mortality at 50 µg/mL: 100%
Panagrellus silusae
  mortality at 100 µg/mL: 86.5%
  mortality at 1000 µg/mL: 100%
  nematocidal activity: good nematocidal activity
[5]
  mortality at 100 µg/mL: 88.4%
  mortality at 1000 µg/mL: 100%
  nematocidal activity: good nematocidal activity
Drosophila melanogaster; 1 hour
  Emax at 50 µg/mL: 0%
  Emax at 500 µg/mL: 0%
  Emax at 5000 µg/mL: 0%
Drosophila melanogaster; 2 hours
  Emax at 50 µg/mL: 0%
  Emax at 500 µg/mL: 0%
  Emax at 5000 µg/mL: 0%
Drosophila melanogaster; 4 hours
  Emax at 50 µg/mL: 0%
  Emax at 500 µg/mL: 0%
  Emax at 5000 µg/mL: 5.9%
Drosophila melanogaster; 24 hours
  Emax at 50 µg/mL: 32.8%
  Emax at 500 µg/mL: 100%
  Emax at 5000 µg/mL: 100%
Drosophila melanogaster; in vivo
  contact and vapor insecticidal activity: good contact and vapor insecticidal activity
Blatella germanica; 625 mg/liter, 24 hr
  % mortality: 10.0%
Blatella germanica; 625 mg/liter, 48 hr
  % mortality: 10.0%
Blatella germanica; 625 mg/liter, 6 days
  % mortality: 15.0%
Blatella germanica; 1250 mg/liter, 24 hr
  % mortality: 90.0%
Blatella germanica; 1250 mg/liter, 48 hr
  % mortality: 95.0%
Blatella germanica; 1250 mg/liter, 6 days
  % mortality: 100%
Blatella germanica; 2500 mg/liter, 24 hr
  % mortality: 95.0%
Blatella germanica; 2500 mg/liter, 48 hr
  % mortality: 95.0%
Blatella germanica; 2500 mg/liter, 6 days
  % mortality: 100%
Blatella germanica
  insecticidal activity: good insecticidal activity
[6]; 24 hr
  mortality at 0.001 mg: 90%
  mortality at 0.01 mg: 100%
[6]; 48 hr
  mortality at 0.001 mg: 90%
  mortality at 0.01 mg: 100%
[6]; in vivo
  insecticidal activity: good insecticidal activity

## CCOC(=O)Cc1csc(OP(=S)(OCC)OCC)n1 [Compound B, 4-ethoxycarbonylmethyl-2-(diethoxythiophosphoryloxy)-thiazole]
Tetranychus urticae; 1 mg/liter, 48 hours
  mortality at 1 µg/mL: 20%
Tetranychus urticae; 48 hours
  mortality at 10 µg/mL: 96%
Tetranychus urticae; 48 h
  mortality at 50 µg/mL: 100%
Panagrellus silusae
  mortality at 100 µg/mL: 100%
  mortality at 1000 µg/mL: 100%
  nematocidal activity: good nematocidal activity
[5]
  mortality at 100 µg/mL: 55.7%
  mortality at 1000 µg/mL: 100%
  nematocidal activity: good nematocidal activity
Blatella germanica; 625 mg/liter, 24 hr
  % mortality: 100%
Blatella germanica; 625 mg/liter, 48 hr
  % mortality: 100%
Blatella germanica; 625 mg/liter, 6 days
  % mortality: 100%
Blatella germanica; 1250 mg/liter, 24 hr
  % mortality: 100%
Blatella germanica; 1250 mg/liter, 48 hr
  % mortality: 100%
Blatella germanica; 1250 mg/liter, 6 days
  % mortality: 100%
Blatella germanica; 312,5 mg/liter, 24 hr
  % mortality: 90%
Blatella germanica; 312,5 mg/liter, 48 hr
  % mortality: 90%
Blatella germanica; 312,5 mg/liter, 6 days
  % mortality: 90%
Blatella germanica
  insecticidal activity: good insecticidal activity
